Assay results reported in patent US8835466B2, “Synthesis and uses of pyroglutamic acid derivatives” (Prodimed, S.A., priority 2006, dated 2014).
Several values for one entry are separate records, joined by “and”; a condition that tells them apart may be missing. Equal entries are not always repeated.

Legend:
P-815 (Mastocytoma) = test: Effect of isomer 4 (9d) on tumour growth, P-815 (Example 10); assay type: in vivo; details: DBA/2NCrI mice, 250 ng/mice i.p. days 6, 7 and 14
Procedure: (§1) The following assays were made in order to check the effect of isomer 4 (9d) on different tumours following methods and materials analogous to those used in examples 8 and 9, In all cases sterile physiologic saline (Grifols, Barcelona, Spain) was used as placebo. Isomer 4 (9d) was tested at the dose levels indicated in Table 13 on days 6, 7 and 14 after tumour inoculation. In all cases the vehicle was physiologic saline and the treatments were given by intraperitoneal route. The volume inoculated was 0.2 mL/animal.

ASB XIV (lung carcinoma) = test: Effect of isomer 4 (9d) on tumour growth, ASB XIV (Example 10); assay type: in vivo; details: Balb/cAnNCrI mice, 260 ng/mice i.p. days 6, 7 and 14
Procedure: as §1

[1] = test system: CD11b and Ly6G positive leukocyte populations; test: Phenotype leukocyte analysis by flow cytometry (CD11b, Ly6G) in peripheral blood (Example 16); assay type: in vivo, Balb/c mice
Procedure: This Example was carried out with the aim at assessing eventual differences in the leukocyte population percentage among the treated mice by flow cytometry. The counts were carried out by using a flow cytometer after labelling membrane proteins (CD11B and Ly6G) with specific antibodies to said proteins. CD11B (also known as Mac-1) marker is expressed in monocyte populations whereas Ly6G (also known as GR-1) is expressed in granulocyte populations. Both markers (CD11b and Ly6G) are expressed in neutrophile populations.
Isomer 4 (compound 9d) at 65 μg/mL in sterile physiological saline.
Equipment Laminar flood hood, Flow cytometer, Adjustable pipettes, Sterile syringes, Sterile needles, EDTA stelile tubes, Plastic tubes. Reagents • Anaesthetic solution • Sterile PBS (Sigma, St. Louis, Mo., USA) • Physiological saline (Grifols, Barcelona, Spain) • Rat anti-mouse CD11b-PE (Beckman Coulter, Fullerton, Calif., USA) • Rat anti-mouse Ly6G-FITC (Beckman Coulter, Fullerton, Calif., USA) • Optylise C (Beckman Coulter, Fullerton, Calif., USA) Dose, Vehicle, Route and Volume Administration Dose Isomer 4 (compound 9d) was tested at the dose levels of 250 ng administered on days 0, and 7. Vehicle The vehicle in which Isomer 4 was diluted is physiological saline. Administration Route and Volume
The treatments were given by intraperitoneal route. The volume inoculated was 200 μl/animal.
Balb/c mice were distributed into 2 experimental groups:
Three days after the last dose of the treatment, murine blood was isolated. It was obtained directly from intracardiac punction. Previously, mice were anesthetized intramuscularly.
Blood was mixed with the monoclonal antibodies described above.
After 20 minutes of incubation, Optylise C solution was added into the samples to lise erythrocytes population.
Finally, samples were diluted ½ with 1× sterile PBS and checked by flow cytometry.
Percentages of each population analyzed were expressed as single values and as the mean±SD from each experimental group.

[2] = test system: CT26.wt (colon carcinoma); test: Effect of isomer 4 (9d) on tumour growth, CT26.wt (Example 10); assay type: in vivo; details: CT26.wt (high dose colon carcinoma); Balbc/cByl mice; 250 ng/mice i.p. days 6, 7 and 14
Procedure: as §1

[3] = test system: CT26.CL25 (colon carcinoma); test: Effect of isomer 4 (9d) on tumour growth, CT26.CL25 (Example 10); assay type: in vivo; details: CT26.CL25 (Low dose colon carcinoma); Balbc/cByl mice; 250 ng/mice i.p. days 6, 7 and 14
Procedure: as §1

Mm5MT (Breast tumour) = test: Effect of isomer 4 (9d) on tumour growth, Mm5MT (Example 10); assay type: in vivo; details: C3H/HeN mice, 250 ng/mice i.p. days 6, 7 and 14
Procedure: as §1

[4] = Balb/C mice, two doses (once per week) 250 ng i.p., flow cytometry three days after the last dose
[5] = group mean, n = 4, 250 ng i.p. on days 0 and 7, blood three days after the last dose
[6] = individual mice, 250 ng i.p. on days 0 and 7, blood three days after the last dose, listed as 9d

Question: For `Br.N[C@]1(C[n+]2ccccc2)C[C@H](C(=O)O)NC1=O.[Br-]` (single isomer, unassigned; isomer 4) [isomer 4, 3S,5R-1-(3-Amino-5-carboxy-2-oxopyrrolidin-3-ylmethyl)pyridinium bromide hidrobromide], which “Tumour growth inhibition?” value (P-815 (Mastocytoma)) is on record?
Answer: YES

Question: What about the “Tumour growth inhibition?” value (ASB XIV (lung carcinoma); ASB XIV (high dose lung carcinoma)) of the same compound?
Answer: YES

Question: What about the “Tumour growth inhibition?” value (ASB XIV (lung carcinoma); ASB XIV (low dose lung carcinoma)) of the same compound?
Answer: YES

Question: What about the “CD11b positive cells in peripheral blood compared with control mice” value [1, 4] of the same compound?
Answer: increment

Question: And the “CD11b+Ly6G positive cells in peripheral blood compared with control mice” value [1, 4]?
Answer: increment

Question: What about the “Ly6G positive cells in peripheral blood compared with control mice” value [1, 4] of the same compound?
Answer: increment

Question: And the “CD11b+ cells, PBL (Peripheral Blood), flow cytometry, Media” value [1, 5]?
Answer: 36.95%

Question: And the “CD11b+Ly6G+ cells, PBL (Peripheral Blood), flow cytometry, Media” value [1, 5]?
Answer: 31.05%

Question: What about the “Ly6G+ cells, PBL (Peripheral Blood), flow cytometry, Media” value [1, 5] of the same compound?
Answer: 34.775%

Question: And the “CD11b+ cells, PBL (Peripheral Blood), flow cytometry” value [1, 6]?
Answer: 35.5% and 44% and 35.4% and 32.9%

Question: What about the “CD11b+Ly6G+ cells, PBL (Peripheral Blood), flow cytometry” value [1, 6] of the same compound?
Answer: 29.7% and 32.3% and 28.5% and 33.7%

Question: What about the “Ly6G+ cells, PBL (Peripheral Blood), flow cytometry” value [1, 6] of the same compound?
Answer: 27% and 37.6% and 33.3% and 41.2%

Question: And the “Tumour growth inhibition?” value [2]?
Answer: YES

Question: What about the “Tumour growth inhibition?” value [3] of the same compound?
Answer: YES

Question: What about the “Tumour growth inhibition?” value (Mm5MT (Breast tumour)) of the same compound?
Answer: YES
